In patent publication US20250230124A1, “SMALL MOLECULE INHIBITORS OF ID PROTEINS” (MEMORIAL SLOAN-KETTERING CANCER CENTER, priority 2022, published 2025):

Key:
[1] = test system: LLC cancer cells; assay: Metastatic activity in LLC mouse model; type: in vivo; settings: daily ip
Method: Thirty C57BL/6 mice will be implanted with 7.5×10^5 LLC cancer cells/animal. Seven days after implantation, 5M/5F per group will be treated daily ip for 25 days with dosing vehicle (DMSO), AGX51, AGX-A, or a compound of the present technology. Fourteen days after implantation, another group of 5M/5F animals will be treated daily ip for 18 days with 50 mg/kg of AGX51, another group of 5M/5F animals will be treated daily ip for 18 days with 50 mg/kg of AGX-A, and another group of 5M/5F animals will be treated daily ip for 18 days with a compound of the present technology. Tumors will be measured three times from Day 7 to 14. On Day 14, the tumors will be excised. The animals will be necropsied for the presence of lung metastases on day 32, 18 days post excision.

[2] = test system: CD31-positive microvessels in Matrigel plugs; assay: Anti-angiogenic activity in VEGF-165 and FGF-2 treated Matrigel plugs; type: in vivo, mouse; settings: for protection from new blood vessel formation: compared to vehicle control animals; for presence of endothelial cells in Matrigel plugs: mouse, in vivo
Method: VEGF-165 and FGF-2 treated Matrigel plugs will be implanted on Day 0 into C57BL/6 mice. Mice will be treated with either vehicle, AGX51, AGX-A, or a compound of the present technology. The AGX51, AGX-A, and compound of the present technology will be provided either in the plugs (25 μg/mg) or by daily ip treatment (30 or 100 mg/kg) for 10 days. Plugs will be harvested on Day 10, fixed and paraffin embedded. Three sections ([…] thickness) of each plug will be stained with an anti-CD31 antibody and counterstained with hematoxylin and eosin stain. CD31-positive microvessels will be counted for one entire cross-section per plug and the average micro-vessel density±SD vessels will be determined. Student's t-test will be used for statistical analysis.

[3] = test system: DU145 cells; assay: Prostate cancer cell morphology, growth and death; type: cell-based; settings: for outcome of treatment of DU145 cells: after six days; for effect on DU145 cells (health, proliferation): after three days
Method: Prostate cancer cell lines DU145 and PC3 (in 10% BCS) will be cultured in Ham's F12 (Gibco, Carlsbad, Calif.) medium containing 10% BCS (Hyclone, Logan, Utah) and appropriate antibiotics (pen/strep, fungizaone, and gentamycin (Invitrogen Inc., Carlsbad, Calif.). All cells will be cultured at 37° C. in a fully humidified atmosphere containing 5% CO2.
At 50% confluence, the cells will be treated with either 100 μM DMSO, AGX51, AGX-A, or a compound of the present technology. The cell morphology and growth will be monitored daily for 1 week by microscopy for changes in morphology or cell death. Apoptosis will be determined by measuring caspase 3 and caspase 7 activities using the Caspase-Glo 3/7 Assay system from Promega (Madison, Wis.).

[4] = biological target: T1, ID1 (Homo sapiens, UniProt P41134); assay: Activity against ID1 in cells (Western Blot); type: cell-based
T1 construct: endogenous in cells
T1 sequence (P41134 1-155): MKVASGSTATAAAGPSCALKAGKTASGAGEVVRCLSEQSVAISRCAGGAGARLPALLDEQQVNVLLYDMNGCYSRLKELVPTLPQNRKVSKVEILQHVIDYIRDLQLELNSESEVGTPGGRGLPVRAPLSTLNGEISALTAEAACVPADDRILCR

[5] = test system: cholangiocarcinoma PDX RomeP_PHCH_X_0008a; assay: Murine patient-derived xenograft model of cholangiocarcinoma, tumor volume; type: in vivo, mouse; settings: NSG mice, 50 or 100 mg/kg p.o. BIDx5 x 4 weeks
Source text: An animal model of cholangiocarcinoma predictive of anti-cholangiocarcinoma drug efficacy in humans, as described in Mattar, M. et al. Establishing and Maintaining an Extensive Library of Patient-Derived Xenograft Models. Front Oncol. 2018 Feb.
• Mice: NSG females, 6-8 weeks old • PDX: RomeP_PHCH_X_0008a, serially transplanted sc with matrigel • Treatment Groups (at least 5 animals/group): treatments started when tumors reached 100 mm^3 (“Day 0” for each animal), dosed via oral gavage • Group 1. Saline with 10% by weight 2-hydroxypropyl-β-cyclodextrin (“Vehicle”), p.o. twice daily for 5 days per week (“BIDx5”) for 4 weeks (“×4 weeks”) • Group 2. AGX-A 50 mg/kg in Vehicle, p.o. BIDx5×4 weeks • Group 3. AGX-A 100 mg/kg in Vehicle, p.o. BIDx5×4 weeks • Group 4. AGX-502 50 mg/kg in Vehicle, p.o. BIDx5×4 weeks • Group 5. AGX-502 100 mg/kg in Vehicle, p.o. BIDx5×4 weeks.
Tumor volumes, weights, and clinical signs were monitored a minimum of twice per week for each animal in each group throughout the study. Mice were sacrificed by CO2 asphyxiation once the tumor volume exceeded 2000 mm^3 or body weight loss was higher than 10%. Upon completion of the experiment, tumors were harvested and processed for immunoblotting and/or immunohistochemistry assays.

[6] = test system: cells; assay: Cell killing / cell viability assay; type: cell-based
Method: Cell viability assays. Cell lines will be seeded in a 96 well plate (5000 cells per well). After overnight incubation, cells will be treated with a compound of the present technology and incubated for 24 hours then MTT reagent (5 mg/mL) will be added per well and the cells will be incubated for four hours. Following incubation, media will be aspirated and 200 μL DMSO will be added per well. Absorbance will then be measured at 570 nm using a plate reader (Synergy 2, BioTek). Cell growth profiles will be determined by seeding 38,000 cells in a 24-well plate, in triplicate for each time point, and counting the cells on days 1, 3 and 5 after seeding, using trypan blue exclusion of dead cells.

| activity against ID1 in cells [4] | activity by Western Blot [4] | Compound | lung metastases [1] | protection from new blood vessel formation [2] | presence of endothelial cells in Matrigel plugs [2] | outcome of treatment of DU145 cells [3] | effect on DU145 cells (health, proliferation) [3] | anti-cancer efficacy (tumor volume) [5] | activity by cell killing [6] | time to complete cell killing [6] [h] | IC50 (24 h) ([6]; 24 h, initial testing) |
| --- | --- | --- | --- | --- | --- | --- | --- | --- | --- | --- | --- |
|  |  | CCC(=O)N(CCC(c1ccc2c(c1)OCO2)c1ccccc1OC)Cc1ccccc1 (racemic) [AGX51, N-(3-(benzo[d][1,3]dioxol-5-yl)-3-(2-methoxyphenyl)propyl)-N-benzylpropionamide] | profoundly diminish | significant protection | significantly decrease | cell death | pronounced effect |  |  |  |  |
| significant activity | very active | COc1ccccc1C(CCNC(C)c1ccccc1)c1ccc(OC(C)C)cc1 (centres unmarked) [AGX-502] |  |  |  |  |  | dose-dependent anti-cancer efficacy | very active | ≤ 8 | significantly favorable |
|  |  | COc1ccccc1C(CCNCc1ccccc1)c1ccc(OC(C)C)cc1 (centres unmarked) [AGX-A, N-benzyl-3-(4-isopropoxyphenyl)-3-(2-methoxyphenyl)propan-1-amine] | profoundly diminish | significant protection | significantly decrease | cell death | pronounced effect |  |  | ≤ 24 |  |
